US20100255580A1, “Differentiation of Human Embryonic Stem Cells” (LIFESCCAN, INC., priority 2007, published 2010)

Test system: human embryonic stem cells (H9, H7) on MATRIGEL
Assay: FACS of CXCR4, DE protocol on […] (feeder-free)
Type: cell-based
Details: for cells expressing CXCR4 (FACS): H9 passage 54, end of the 5th day, 100 ng/ml Activin A +/− 10 ng/ml Wnt3a for 2 days
Method: Adhered cells were removed from culture plates by five-minute incubation with TrypLE™ Express solution (Invitrogen, CA). Released cells were resuspended in human embryonic stem cell culture medium and recovered by centrifugation, followed by washing and resuspending the cells in a staining buffer consisting of 2% BSA, 0.05% sodium azide in PBS (Sigma, MO). As appropriate, the cells were Fc-receptor blocked for 15 minutes using a 0.1% γ-globulin (Sigma) solution. […] Controls included appropriate isotype matched antibodies, unstained cells, and cells stained only with secondary conjugated antibody. All incubations with antibodies were performed for 30 mins at 4° C. after which the cells were washed with the staining buffer. Samples that were stained with unconjugated primary antibodies were incubated for an additional 30 mins at 4° C. with secondary conjugated PE or -APC labeled antibodies. See Table I for a list of secondary antibodies used. Washed cells were pelleted and resuspended in the staining buffer, and the cell surface molecules were identified using a FACS Array (BD Biosciences) instrument, collecting at least 10,000 events.
Differentiation of embryonic stem cells to definitive endoderm was carried out as previously described in Nature Biotechnology 23, 1534-1541 (December 2005). […] H9 cells were cultured on plates coated with growth factor reduced […] at a 1:30 to 1:10 dilution or on regular […] at a 1:30 to 1:10 dilution The plates were coated with […] for 1 hr at room temperature.
At day 5, the cultures were analyzed by FACS for CXCR4, E-cadherin, CD9, and N-cadherin expression and by real time PCR for SOX-17, SOX-7, Alpha-fetal protein (AFP), CXCR4, Brychyury (Bry), gooscecoid (GSC), HNF-3 beta, and GATA4. AFP and SOX-7 are regarded as visceral endoderm markers, while GATA4, HNF-3 beta and SOX-17 represent definite endoderm markers, and GSC, Bry, and CXCR4 represent markers of primitive streak. FIG. 17 depicts the expression of CXCR4 by FACS.
Differentiation of embryonic stem cells to definitive endoderm was carried out as previously described in Nature Biotechnology 23, 1534-1541 (December 2005). […] In all subsequent examples unless otherwise noted, this treatment regimen will be referred to as the definite endoderm (DE) protocol. In parallel, H9, H7, or H1 cells cultured on MEF feeders were also exposed to the same DE protocol outlined above.
In some of the cultures 20 ng/ml Wnt-3a (Catalog #1324-WN-002, R&D Systems, MN), 20 ng/ml Wnt-5a (Catalog #654-WN-010, R&D Systems, MN), 25 ng/ml Wnt-7a (Catalog #3008-WN-025, R&D Systems, MN), or 25 ng/ml Wnt-5b (Catalog #3006-WN-025, R&D Systems, MN) was added throughout the five day treatment. FIG. 24 depicts phase contrast images of H9P46 definitive endoderm culture in the presence of high concentration of (a) AA or (b) AA+20 ng/ml Wnt-3a. FIG. 25 depicts the expression of CXCR4 by FACS at day 5 for H7P44, and H9P46 lines cultured on […] (1:30 dilution) and exposed to the DE protocol+Wnt-3a (FIG. 25, panels b and d) and −Wnt-3a (FIG. 25, panels a and c).
Control cultures were not treated with Wnt-3a. FIG. 27, panel a depicts the expression of CXCR4 by FACS at day 5 in the absence of Wnt-3a, b) 10 ng/ml Wnt-3a, c) 20 ng/ml Wnt-3a and d) 50 ng/ml Wnt-3a. In the absence of Wnt-3a the expression of CXCR4 was very low. […] Real-time PCR results (FIG. 28, panel a) also confirm this finding.
In order to confirm that the effect of Wnt-3a was through the Wnt pathway, a GSK-3 inhibitor was used to activate the downstream targets of Wnt, such as beta catenin. […] FIG. 29, panel a depicts the expression of CXCR4 by FACS at day 5 in the absence of Wnt-3a or GSK-3B inhibitor, b) +20 ng/ml Wnt-3a, c) +1000 nM GSK-3B inhibitor IX, d) +500 nM GSK-3B inhibitor IX, e) +100 nM GSK-3B inhibitor IX, f) +10 nM GSK-3B inhibitor IX, g) +100 nM GSK-3B inhibitor IX for days 1-2, and h) +10 nM GSK-3B inhibitor IX for days 1-2. […]

[1] = H9P46-P48, 20 ng/ml Wnt-3a or 100-1000 nM GSK-3B inhibitor, day 5

Compound | number of CXCR4 positive cells [1] | expression of CXCR4 (FACS) (H9P46-P48, 10 nm GSK-3B inhibitor, day 5) | cells expressing CXCR4 (FACS) [%] | expression of CXCR4 (CD184) by FACS (H7P44 and H9P46, day 5, DE protocol + 20 ng/ml Wnt-3a vs low serum plus AA) | number of CXCR4 positive cells (H9P46, 10-50 ng/ml Wnt-3a with 100 ng/ml AA, day 5)
O=C1Nc2cc(Br)ccc2/C1=C1/Nc2ccccc2/C1=N\O [GSK-3B inhibitor IX, reference compound] | significantly increased | very low |  |  | 
Activin A: a member of the TGFβ superfamily; R&D Systems; Group 2 = Activin A (100 ng/ml) |  |  | 1 |  | 
Wnt-3a | significantly increased |  | 73 | robust expression | significantly increased
